# Organism: Rattus norvegicus
# Assay: DrugMatrix - Regimen: Daily Repeat
# Format: toxicity, organism-based, Sprague-Dawley
# Parameters: regimen Daily Repeat, gender Male, age 6-8 weeks
# Details: in vivo, po, route oral GAVAGE, […]; for ABSOLUTE BASOPHIL / ABSOLUTE EOSINOPHIL / ABSOLUTE LYMPHOCYTE / ABSOLUTE MONOCYTE / ABSOLUTE SEGMENTED NEUTROPHIL / BASOPHIL / EOSINOPHIL / ERYTHROCYTE COUNT / HEMATOCRIT / HEMOGLOBIN / LEUKOCYTE COUNT / LYMPHOCYTE / MEAN CORPUSCULAR HEMOGLOBIN / MEAN CORPUSCULAR HEMOGLOBIN CONCENTRATION / MEAN CORPUSCULAR VOLUME / MONOCYTE / NEUTROPHIL / NUCLEATED RED BLOOD CELLS / PLATELET COUNT: tissue Blood; for ALANINE AMINOTRANSFERASE / ALBUMIN / ALKALINE PHOSPHATASE / ASPARTATE AMINOTRANSFERASE / BLOOD UREA NITROGEN / CARBON DIOXIDE / CHLORIDE / CHOLESTEROL / CREATINE PHOSPHOKINASE / CREATININE / GLUCOSE / LACTATE DEHYDROGENASE / LIPASE / PHOSPHORUS / POTASSIUM / SODIUM / TOTAL BILIRUBIN / TOTAL PROTEIN / URIC ACID: tissue Plasma
# [1] = 6 mg/kg, 120 h, dose level Low, time 5 day
# [2] = 74 mg/kg, 72 h, dose level High, time 3 day
# [3] = 74 mg/kg, 120 h, dose level High, time 5 day
smiles,measurement,setting,value
CO[C@H]1O[C@@H]2O[C@@]3(C)CC[C@H]4[C@H](C)CC[C@@H]([C@H]1C)[C@@]24OO3,ABSOLUTE BASOPHIL,[1],0 CELLS/uL
same,ABSOLUTE EOSINOPHIL,[1],153 CELLS/uL
same,ABSOLUTE LYMPHOCYTE,[1],12396 CELLS/uL
same,ABSOLUTE MONOCYTE,[1],197.67 CELLS/uL
same,ABSOLUTE SEGMENTED NEUTROPHIL,[1],1920 CELLS/uL
same,BASOPHIL,[1],0%
same,EOSINOPHIL,[1],1%
same,ERYTHROCYTE COUNT,[1],5.88 x10E6/uL
same,HEMATOCRIT,[1],36.63%
same,HEMOGLOBIN,[1],13.47 G/DL
same,LEUKOCYTE COUNT,[1],14.67 x10E3/uL
same,LYMPHOCYTE,[1],84.33%
same,MEAN CORPUSCULAR HEMOGLOBIN,[1],22.93 pg
same,MEAN CORPUSCULAR HEMOGLOBIN CONCENTRATION,[1],36.8 G/DL
same,MEAN CORPUSCULAR VOLUME,[1],62.33 fL
same,MONOCYTE,[1],1.33%
same,NEUTROPHIL,[1],13.33%
same,NUCLEATED RED BLOOD CELLS,[1],0 /100WBC
same,PLATELET COUNT,[1],1198.67 x10E3/uL
same,ALANINE AMINOTRANSFERASE,[1],52.67 u/L
same,ALBUMIN,[1],4.37 G/DL
same,ALKALINE PHOSPHATASE,[1],430.33 u/L
same,ASPARTATE AMINOTRANSFERASE,[1],101 u/L
same,BLOOD UREA NITROGEN,[1],17.67 mg/dL
same,CARBON DIOXIDE,[1],23.33 mmol/L
same,CHLORIDE,[1],105.67 MEQ/L
same,CHOLESTEROL,[1],58.67 mg/dL
same,CREATINE PHOSPHOKINASE,[1],552.33 u/L
same,CREATININE,[1],0.16 mg/dL
same,GLUCOSE,[1],160 mg/dL
same,LACTATE DEHYDROGENASE,[1],887.67 u/L
same,LIPASE,[1],8.33 u/L
same,PHOSPHORUS,[1],11.77 mg/dL
same,POTASSIUM,[1],6.02 MEQ/L
same,SODIUM,[1],144.53 MEQ/L
same,TOTAL BILIRUBIN,[1],0.17 mg/dL
same,TOTAL PROTEIN,[1],5.93 G/DL
same,URIC ACID,[1],1.83 mg/dL
same,ABSOLUTE BASOPHIL,[2],0 CELLS/uL
same,ABSOLUTE EOSINOPHIL,[2],390 CELLS/uL
same,ABSOLUTE LYMPHOCYTE,[2],14550 CELLS/uL
same,ABSOLUTE MONOCYTE,[2],453 CELLS/uL
same,ABSOLUTE SEGMENTED NEUTROPHIL,[2],1407 CELLS/uL
same,BASOPHIL,[2],0%
same,EOSINOPHIL,[2],2.33%
same,ERYTHROCYTE COUNT,[2],5.21 x10E6/uL
same,HEMATOCRIT,[2],33.1%
same,HEMOGLOBIN,[2],12.6 G/DL
same,LEUKOCYTE COUNT,[2],16.8 x10E3/uL
same,LYMPHOCYTE,[2],86.67%
same,MEAN CORPUSCULAR HEMOGLOBIN,[2],24.23 pg
same,MEAN CORPUSCULAR HEMOGLOBIN CONCENTRATION,[2],38.07 G/DL
same,MEAN CORPUSCULAR VOLUME,[2],63.67 fL
same,MONOCYTE,[2],2.67%
same,NEUTROPHIL,[2],8.33%
same,NUCLEATED RED BLOOD CELLS,[2],0 /100WBC
same,PLATELET COUNT,[2],1173 x10E3/uL
same,ALANINE AMINOTRANSFERASE,[2],46 u/L
same,ALBUMIN,[2],4.13 G/DL
same,ALKALINE PHOSPHATASE,[2],349.67 u/L
same,ASPARTATE AMINOTRANSFERASE,[2],77.33 u/L
same,BLOOD UREA NITROGEN,[2],16 mg/dL
same,CARBON DIOXIDE,[2],27 mmol/L
same,CHLORIDE,[2],103.33 MEQ/L
same,CHOLESTEROL,[2],66.67 mg/dL
same,CREATINE PHOSPHOKINASE,[2],259.33 u/L
same,CREATININE,[2],0.23 mg/dL
same,GLUCOSE,[2],144.67 mg/dL
same,LACTATE DEHYDROGENASE,[2],331.33 u/L
same,LIPASE,[2],9.33 u/L
same,PHOSPHORUS,[2],10.07 mg/dL
same,POTASSIUM,[2],6.54 MEQ/L
same,SODIUM,[2],142.23 MEQ/L
same,TOTAL BILIRUBIN,[2],0.2 mg/dL
same,TOTAL PROTEIN,[2],5.63 G/DL
same,URIC ACID,[2],1.17 mg/dL
same,ABSOLUTE BASOPHIL,[3],0 CELLS/uL
same,ABSOLUTE EOSINOPHIL,[3],257.33 CELLS/uL
same,ABSOLUTE LYMPHOCYTE,[3],17040 CELLS/uL
same,ABSOLUTE MONOCYTE,[3],413.67 CELLS/uL
same,ABSOLUTE SEGMENTED NEUTROPHIL,[3],1822.33 CELLS/uL
same,BASOPHIL,[3],0%
same,EOSINOPHIL,[3],1.33%
same,ERYTHROCYTE COUNT,[3],6.13 x10E6/uL
same,HEMATOCRIT,[3],36.63%
same,HEMOGLOBIN,[3],13.57 G/DL
same,LEUKOCYTE COUNT,[3],19.53 x10E3/uL
same,LYMPHOCYTE,[3],87%
same,MEAN CORPUSCULAR HEMOGLOBIN,[3],22.17 pg
same,MEAN CORPUSCULAR HEMOGLOBIN CONCENTRATION,[3],37.03 G/DL
same,MEAN CORPUSCULAR VOLUME,[3],59.77 fL
same,MONOCYTE,[3],2%
same,NEUTROPHIL,[3],9.67%
same,NUCLEATED RED BLOOD CELLS,[3],0.33 /100WBC
same,PLATELET COUNT,[3],1300.33 x10E3/uL
same,ALANINE AMINOTRANSFERASE,[3],55.33 u/L
same,ALBUMIN,[3],4.3 G/DL
same,ALKALINE PHOSPHATASE,[3],329 u/L
same,ASPARTATE AMINOTRANSFERASE,[3],100 u/L
same,BLOOD UREA NITROGEN,[3],16.33 mg/dL
same,CARBON DIOXIDE,[3],25 mmol/L
same,CHLORIDE,[3],102.67 MEQ/L
same,CHOLESTEROL,[3],51.67 mg/dL
same,CREATINE PHOSPHOKINASE,[3],790.67 u/L
same,CREATININE,[3],0.21 mg/dL
same,GLUCOSE,[3],171.67 mg/dL
same,LACTATE DEHYDROGENASE,[3],649.67 u/L
same,LIPASE,[3],9.67 u/L
same,PHOSPHORUS,[3],12.37 mg/dL
same,POTASSIUM,[3],5.73 MEQ/L
same,SODIUM,[3],143.53 MEQ/L
same,TOTAL BILIRUBIN,[3],0.13 mg/dL
same,TOTAL PROTEIN,[3],5.8 G/DL
same,URIC ACID,[3],1.73 mg/dL

# — ChEMBL document CHEMBL3885881, “DrugMatrix”
